# According to US8993585B2, “Cyclic amine substituted pyrimidinediamines as PKC inhibitors” (Rigel Pharmaceuticals, Inc., priority 2007, dated 2015):
# Assays:
# PKC theta = target: T1, PKC theta (Homo sapiens, UniProt Q04759); assay: PKC assay, fluorescence polarization (Example 2), PKC theta; format: biochemical; settings: 5 μM ATP
# T1 construct: purchased Upstate Biotechnologies, Temecula, CA 14-444
# Procedure: The inhibition of PKC activity was measured by monitoring the production of phosphorylated peptide by fluorescence polarization at different concentrations of the inhibitor. Reactions were carried out in 96-well plate format with a total volume of 20 μL containing 20 mM HEPES, pH 7.4, 5 mM MgCl2, 0.2 mM CaCl2, 1 mM DTT, 0.02% Brij-35, 0.1 mg/mL phosphatidylserine, 0.02 mg/mL dioleoyl-sn-glycerol and 5 μM each of ATP and the peptide substrate. Compounds were first diluted serially in DMSO and then transferred to a solution containing the above concentrations of HEPES, MgCl2, CaCl2, DTT, and Brij-35 to yield 5× compound solutions in 2% DMSO, which was then added to the reaction solution. Reactions were initiated by the addition of PKC at a typical concentration as described in Table VI, and then allowed to incubate at room temperature for 20 min. At the end of this time, a combination of quench (EDTA) and detection (peptide tracer and antibody) reagents was added using the protocol of Invitrogen P2748.
# Human primary T cells = assay: IL-2 ELISA, Human Primary T Cell, Anti-CD3+CD28+ (Example 3); format: cell-based; settings: anti-CD3+CD28 stimulation
# Method in brief: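 Human primary T cells, 100,000 per well, were pre-incubated with compound in Yssel's medium for 1 h at 37 °C. The counter-assay used 0.5 ng/ml PMA with 0.1 uM ionomycin final.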
# T1 sequence (Q04759 whole entry): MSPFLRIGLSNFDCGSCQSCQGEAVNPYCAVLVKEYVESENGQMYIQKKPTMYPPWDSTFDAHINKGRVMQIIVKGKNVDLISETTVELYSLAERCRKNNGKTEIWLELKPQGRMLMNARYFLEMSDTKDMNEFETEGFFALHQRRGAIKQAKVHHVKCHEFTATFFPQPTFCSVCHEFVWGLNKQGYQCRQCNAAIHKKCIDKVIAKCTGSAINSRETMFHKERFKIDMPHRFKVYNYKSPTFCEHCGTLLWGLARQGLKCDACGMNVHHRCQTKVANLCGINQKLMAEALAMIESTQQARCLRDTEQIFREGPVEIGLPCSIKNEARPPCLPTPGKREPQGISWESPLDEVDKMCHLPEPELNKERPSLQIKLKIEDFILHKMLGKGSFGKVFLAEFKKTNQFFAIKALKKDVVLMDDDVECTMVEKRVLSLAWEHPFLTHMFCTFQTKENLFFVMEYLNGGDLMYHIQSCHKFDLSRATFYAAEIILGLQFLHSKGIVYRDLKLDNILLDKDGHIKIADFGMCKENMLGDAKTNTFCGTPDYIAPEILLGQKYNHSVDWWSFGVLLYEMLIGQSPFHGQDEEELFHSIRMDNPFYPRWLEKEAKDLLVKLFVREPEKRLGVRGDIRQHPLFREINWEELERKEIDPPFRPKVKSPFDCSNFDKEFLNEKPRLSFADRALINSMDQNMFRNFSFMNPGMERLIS
IC50 (PKC theta) [nM],"IC50 (Human primary T cells; Homo sapiens, T-cell, 24 h) [nM]",IC50 (Human primary T cells; 24 hours) [nM],SMILES
379,384,,CC(=O)N1C(C)CN(c2cc(Nc3ncc(F)c(NC4CC(C)(C)N(C)C(C)(C)C4)n3)ccc2Cl)CC1C (centres unmarked) [Compound I-251]
37.8,561,,CCN1C(=O)CCc2cc(Nc3ncc(F)c(NC4CC(C)(C)N(C)C(C)(C)C4)n3)ccc21 [II-5]
14.5,516,,Cc1ccc(Nc2ncc(F)c(NC3CC(C)(C)N(C)C(C)(C)C3)n2)cc1-c1cnn(C)c1 [Compound I-190]
45.7,288,,CN1C(C)(C)CC(Nc2nc(Nc3ccc(-c4ccoc4)c(C(F)(F)F)c3)ncc2F)CC1(C)C [Compound I-328]
1.94,175,,CN1C(C)(C)CC(Nc2nc(Nc3ccc(N4CCOCC4)c(C#N)c3)ncc2F)CC1(C)C [Compound I-198]
36,299,,Cc1ccc(Nc2ncc(F)c(NC3CC(C)(C)N(C)C(C)(C)C3)n2)cc1Cl [Compound I-332]
53.2,476,,Cc1ccc2cc(Nc3ncc(F)c(NC4CC(C)(C)N(C)C(C)(C)C4)n3)ccc2n1 [II-7]
18,619,,"CN1CCC(Nc2nc(Nc3ccc(N4CCN(C)CC4)c(C(F)(F)F)c3)ncc2F)CC1 [III-3, 5-Fluoro-N2-[4-(4-methylpiperazino)-3-trifluoromethyl]phenyl-N4-(1-methylpiperidin-4-yl)-2,4-pyrimidinediamine]"
329,539,,CN1C(C)(C)CC(Nc2nc(Nc3ccc(N4CCC(F)(F)CC4)c(C(F)(F)F)c3)ncc2F)CC1(C)C [Compound I-245]
2.41,,121,CN1CCN(c2ccc(Nc3ncc(F)c(NC4CC(C)(C)N(C)C(C)(C)C4)n3)cc2OC(F)F)CC1 [Compound I-236]
6.06,244,,CN1C(=O)COc2cc(Nc3ncc(F)c(NC4CC(C)(C)N(C)C(C)(C)C4)n3)ccc21 [II-6]
249,311,,CN1C(C)(C)CC(Nc2nc(Nc3ccc(C(F)(F)F)c(Cl)c3)ncc2F)CC1(C)C [Compound I-337]
13.6,222,,CN1C(C)(C)CC(Nc2nc(Nc3cccc(OC(F)F)c3)ncc2F)CC1(C)C [Compound I-234]
255,1560,,"N#Cc1cccc(Nc2ncc(F)c(NC3CCN(CCO)CC3)n2)c1 [III-6, N2-(3-Cyano)phenyl-5-fluoro-N4-[1-(2-hydroxyethyl)piperidin-4-yl]-2,4-pyrimidinediamine]"
10.1,720,,CCN1C(=O)C(C)(C)Oc2cc(Nc3ncc(OC)c(NC4CC(C)(C)N(C)C(C)(C)C4)n3)ccc21 [II-130]
254,1140,,"CN1CCN(c2ccc(Nc3ncc(F)c(NC4CCN(CCO)CC4)n3)cc2C(F)(F)F)CC1 [III-7, 5-Fluoro-N4-[1-(2-hydroxyethyl)piperidin-4-yl]-N2-[4-(4-methylpiperazino)-3-trifluoromethyl]phenyl-2,4-pyrimidinediamine]"
52,467,,CN1C(C)(C)CC(Nc2nc(Nc3ccc(OC(F)(F)F)c(-c4cccnc4)c3)ncc2F)CC1(C)C [Compound I-208]
3.94,115,,CN1C(C)(C)CC(Nc2nc(Nc3ccc(N4CCN(S(C)(=O)=O)CC4)c(OC(F)F)c3)ncc2F)CC1(C)C [Compound I-238]
31.8,188,,CN1C(C)(C)CC(Nc2nc(Nc3ccc(NC(=O)c4ccco4)c(Cl)c3)ncc2F)CC1(C)C [Compound I-339]

# Further lines, the molecule ahead of its results:
SMILES,IC50 (PKC theta) [nM],"IC50 (Human primary T cells; Homo sapiens, T-cell, 24 h) [nM]",IC50 (Human primary T cells; 24 hours) [nM]
Cc1ccc(Nc2ncc(F)c(NC3CC(C)(C)N(C)C(C)(C)C3)n2)cc1S(N)(=O)=O [Compound I-11],52,1570,
CN1C(C)(C)CC(Nc2nc(Nc3ccc(-c4ccoc4)c(Cl)c3)ncc2F)CC1(C)C [Compound I-155],14.4,418,
CN1CCN(c2ccc(Nc3ncc(Cl)c(NC4CC(C)(C)N(C)C(C)(C)C4)n3)cc2C#N)CC1 [Compound I-179],1.49,92.2,
CN1C(C)(C)CC(Nc2nc(Nc3ccc(-c4ccncc4)c(F)c3)ncc2F)CC1(C)C [Compound I-115],21.9,287,
CN1C(C)(C)CC(Nc2nc(Nc3cccc(S(N)(=O)=O)c3)ncc2F)CC1(C)C [Compound I-10],70,1880,
CN1C(C)(C)CC(Nc2nc(Nc3cccc(C#N)c3)ncc2F)CC1(C)C [Compound I-26],3,59,
CN1CCN(c2ccc(Nc3ncc(F)c(NC4CC(C)(C)N(C)C(C)(C)C4)n3)cc2)CC1 [Compound I-1],226,3020,
CN1C(C)(C)CC(Nc2nc(Nc3ccc(Br)c(Cl)c3)ncc2F)CC1(C)C [Compound I-153],10.2,209,
CN1C(C)(C)CC(Nc2nc(Nc3ccc(C#N)c(Cl)c3)ncc2Cl)CC1(C)C [Compound I-35],24,145,
CN1C(C)(C)CC(Nc2nc(Nc3ccc(-c4cccnc4)c(Cl)c3)ncc2F)CC1(C)C [Compound I-154],3.81,261,
CN1C(C)(C)CC(Nc2nc(Nc3cc(Br)cc(C(F)(F)F)c3)ncc2F)CC1(C)C [Compound I-162],68.6,553,
CN1C(C)(C)CC(Nc2nc(Nc3ccc(-c4cnn(C)c4)c(C(F)(F)F)c3)ncc2F)CC1(C)C [Compound I-126],12,243,
Cc1cc(Nc2ncc(F)c(NC3CC(C)(C)N(C)C(C)(C)C3)n2)cnc1N1CCN(C)CC1 [Compound I-7],16,530,
CN1CCN(c2ccc(Nc3ncc(C(F)(F)F)c(NC4CC(C)(C)N(C)C(C)(C)C4)n3)cc2Cl)CC1 [Compound I-34],4,123,
CN1CCN(c2ccc(Nc3ncc(F)c(NC4CC(C)(C)N(C)C(C)(C)C4)n3)cc2F)CC1 [Compound I-39],15,937,
CN1C(C)(C)CC(Nc2nc(Nc3ccc(S(N)(=O)=O)cc3)ncc2F)CC1(C)C [Compound I-9],86,3440,
CN1C(C)(C)CC(Nc2nc(Nc3ccc(-c4cccnc4)cc3)ncc2F)CC1(C)C [Compound I-124],55.7,540,
CN1C(C)(C)CC(Nc2nc(Nc3ccc(-c4cnn(C)c4)c(Cl)c3)ncc2F)CC1(C)C [Compound I-157],3.1,242,
CCN1CCN(c2ccc(Nc3ncc(F)c(NC4CC(C)(C)N(C)C(C)(C)C4)n3)cn2)CC1 [Compound I-6],180,1690,
CN1C(C)(C)CC(Nc2nc(Nc3ccc(-c4ccncc4)c(C#N)c3)ncc2F)CC1(C)C [Compound I-185],7.65,299,
Cc1cc(N2CCN(C)CC2)ncc1Nc1ncc(F)c(NC2CC(C)(C)N(C)C(C)(C)C2)n1 [Compound I-8],213,5810,
Cc1cc(Nc2ncc(F)c(NC3CC(C)(C)N(C)C(C)(C)C3)n2)ccc1-c1ccncc1 [Compound I-120],29.5,366,
CN1C(C)(C)CC(Nc2nc(Nc3ccc(N4CCN(S(C)(=O)=O)CC4)c(C#N)c3)ncc2F)CC1(C)C [Compound I-164],2.16,223,
CN1C(C)(C)CC(Nc2nc(Nc3cccc(-c4cc5ccccc5s4)c3)ncc2F)CC1(C)C [Compound I-106],239,527,
